US11091478B2 (Fochon Pharmaceuticals, Ltd., priority 2017, dated 2021)

Legend:
DOHH2 cells = assay: Cell proliferation assay (MTS), DOHH2 cells, 120 h; type: cell-based; settings: Homo sapiens, DOHH-2, 120 h
Outline: (§1)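 Treatment lasts 72 h for RS4;11 and 120 h for DOHH2 cells seeded at 5000 per well in serum-containing RPMI-1640. A 2 h MTS step, halted with 10% SDS, precedes dual-wavelength absorbance reading and IC50 fitting.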

RS4;11 cells = assay: Cell proliferation assay (MTS), RS4;11 cells, 72 h; type: cell-based; settings: Homo sapiens, RS4-11, 72 h
Outline: as §1

| SMILES | IC50 (DOHH2 cells) | IC50 (RS4;11 cells) |
| --- | --- | --- |
| CC1(C)CCC(CN2CCN(c3ccc(C(=O)NS(=O)(=O)c4cc5c(c([N+](=O)[O-])c4)N[C@@H](COC4CCOCC4)CO5)c(Oc4cnc5[nH]ccc5c4)c3)CC2)=C(c2ccc(Cl)cc2)C1 [Example 2-183, (S)-2-((1H-pyrrolo[2,3-b]pyridin-5-yl)oxy)-4-(4-((4′-chloro-5,5-dimethyl-3,4,5,6-tetra-hydro-[1,1′-biphenyl]-2-yl)methyl)piperazin-1-yl)-N-((5-nitro-3-(((tetrahydro-2H-pyran-4-yl)oxy)methyl)-3,4-dihydro-2H-benzo [b][1,4]oxazin-7-yl)sulfonyl)benzamide] | 20 nM | 4 nM |
| CC1(C)CCC(CN2CCN(c3ccc(C(=O)NS(=O)(=O)c4cc5c(c([N+](=O)[O-])c4)N[C@H](COC4CCOCC4)CO5)c(Oc4cnc5[nH]ccc5c4)c3)CC2)=C(c2ccc(Cl)cc2)C1 [Example 2-184, (R)-2-((1H-pyrrolo[2,3-b]pyridin-5-yl)oxy)-4-(4-((4′-chloro-5,5-dimethyl-3,4,5,6-tetra-hydro-[1,1′-biphenyl]-2-yl)methyl)piperazin-1-yl)-N-((5-nitro-3-(((tetrahydro-2H-pyran-4-yl)oxy)methyl)-3,4-dihydro-2H-benzo [b][1,4]oxazin-7-yl)sulfonyl)benzamide] | 11 nM | 3 nM |
| CC1(C)CCC(CN2CCN(c3ccc(C(=O)NS(=O)(=O)c4cc5c(c([N+](=O)[O-])c4)NC(C4CCOCC4)CO5)c(Oc4cnc5[nH]ccc5c4)c3)CC2)=C(c2ccc(Cl)cc2)C1 (stereo not shown) [Example 2-185, 2-((1H-pyrrolo[2,3-b]pyridin-5-yl)oxy)-4-(4-((4′-chloro-5,5-dimethyl-3,4,5,6-tetra-hydro[1,1′-biphenyl]-2-yl)methyl)piperazin-1-yl)-N-((5-nitro-3-(tetrahydro-2H-pyran-4-yl)-3,4-dihydro-2H-benzo[b][1,4]oxazin-7-yl)sulfonyl)benzamide] | 3 nM | 1 nM |
| CC1(C)CCC(CN2CCN(c3ccc(C(=O)NS(=O)(=O)c4cc5c(c([N+](=O)[O-])c4)N[C@H](C4CCOCC4)CO5)c(Oc4cnc5[nH]ccc5c4)c3)CC2)=C(c2ccc(Cl)cc2)C1 [Example 2-186, (R)-2-((1H-pyrrolo[2,3-b]pyridin-5-yl)oxy)-4-(4-((4′-chloro-5,5-dimethyl-3,4,5,6-tetra-hydro-[1,1′-biphenyl]-2-yl)methyl)piperazin-1-yl)-N-((5-nitro-3-(tetrahydro-2H-pyran-4-yl)-3,4-dihydro-2H-benzo[b][1,4]oxazin-7-yl)sulfonyl)benzamide] | 13 nM | 1 nM |
| CC1(C)CCC(CN2CCN(c3ccc(C(=O)NS(=O)(=O)c4cc5c(c([N+](=O)[O-])c4)N[C@@H](C4CCOCC4)CO5)c(Oc4cnc5[nH]ccc5c4)c3)CC2)=C(c2ccc(Cl)cc2)C1 [Example 2-187, (S)-2-((1H-pyrrolo[2,3-b]pyridin-5-yl)oxy)-4-(4-((4′-chloro-5,5-dimethyl-3,4,5,6-tetra-hydro-[1,1′-biphenyl]-2-yl)methyl)piperazin-1-yl)-N-((5-nitro-3-(tetrahydro-2H-pyran-4-yl)-3,4-dihydro-2H-benzo[b][1,4]oxazin-7-yl)sulfonyl)benzamide] | 14 nM | 2 nM |
| CC1(C)CCC(CN2CCN(c3ccc(C(=O)NS(=O)(=O)c4cc5c(c([N+](=O)[O-])c4)NC(C4CCC(O)CC4)CO5)c(Oc4cnc5[nH]ccc5c4)c3)CC2)=C(c2ccc(Cl)cc2)C1 (stereo not shown) [Example 2-188, 2-((1H-pyrrolo[2,3-b]pyridin-5-yl)oxy)-4-(4-((4′-chloro-5,5-dimethyl-3,4,5,6-tetrahydro-[1,1′-biphenyl]-2-yl)methyl)piperazin-1-yl)-N-((3-(4-hydroxycyclohexyl)-5-nitro-3,4-dihydro-2H-benzo[b][1,4]oxazin-7-yl)sulfonyl)benzamide] | 19 nM | 1 nM |
| CC1(C)CCC(CN2CCN(c3ccc(C(=O)NS(=O)(=O)c4cc5c(c([N+](=O)[O-])c4)N[C@@H](Cc4ccccc4F)CO5)c(Oc4cnc5[nH]ccc5c4)c3)CC2)=C(c2ccc(Cl)cc2)C1 [Example 2-189, (S)-2-((1H-pyrrolo[2,3-b]pyridin-5-yl)oxy)-4-(4-((4′-chloro-5,5-dimethyl-3,4,5,6-tetra-hydro-[1,1′-biphenyl]-2-yl)methyl)piperazin-1-yl)-N-((3-(2-fluorobenzyl)-5-nitro-3,4-dihydro-2H-benzo[b][1,4]oxazin-7-yl)sulfo-nyl)benzamide] | 148 nM | 78 nM |
| CC1(C)CCC(CN2CCN(c3ccc(C(=O)NS(=O)(=O)c4cc5c(c([N+](=O)[O-])c4)N[C@@H](Cc4ccc(F)cc4)CO5)c(Oc4cnc5[nH]ccc5c4)c3)CC2)=C(c2ccc(Cl)cc2)C1 [Example 2-190, (S)-2-((1H-pyrrolo[2,3-b]pyridin-5-yl)oxy)-4-(4-((4′-chloro-5,5-dimethyl-3,4,5,6-tetra-hydro-[1,1′-biphenyl]-2-yl)methyl)piperazin-1-yl)-N-((3-(4-fluorobenzyl)-5-nitro-3,4-dihydro-2H-benzo[b][1,4]oxazin-7-yl)sulfo-nyl)benzamide] | 25 nM | 8 nM |
| CC1(C)CCC(CN2CCN(c3ccc(C(=O)NS(=O)(=O)c4cc5c(c([N+](=O)[O-])c4)N[C@@H](Cc4ccc(S(C)(=O)=O)cn4)CO5)c(Oc4cnc5[nH]ccc5c4)c3)CC2)=C(c2ccc(Cl)cc2)C1 [Example 2-192, (S)-2-((1H-pyrrolo[2,3-b]pyridin-5-yl)oxy)-4-(4-((4′-chloro-5,5-dimethyl-3,4,5,6-tetra-hydro-[1,1′-biphenyl]-2-yl)methyl)piperazin-1-yl)-N-((3-((5-(methylsulfonyl)pyridin-2-yl)methyl)-5-nitro-3,4-dihydro-2H-benzo [b][1,4]oxazin-7-yl)sulfonyl)benzamide] | 143 nM | 5 nM |
| CN1CCC(C[C@H]2COc3cc(S(=O)(=O)NC(=O)c4ccc(N5CCN(CC6=C(c7ccc(Cl)cc7)CC(C)(C)CC6)CC5)cc4Oc4cnc5[nH]ccc5c4)cc([N+](=O)[O-])c3N2)CC1 [Example 2-193, (S)-2-((1H-pyrrolo[2,3-b]pyridin-5-yl)oxy)-4-(4-((4′-chloro-5,5-dimethyl-3,4,5,6-tetra-hydro-[1,1′-biphenyl]-2-yl)methyl)piperazin-1-yl)-N-((3-((1-methylpiperidin-4-yl)meth-yl)-5-nitro-3,4-dihydro-2H-benzo[b][1,4]oxazin-7-yl)sulfonyl)benzamide] | 28 nM | 1 nM |
| CC(=O)N1CCC(C[C@H]2COc3cc(S(=O)(=O)NC(=O)c4ccc(N5CCN(CC6=C(c7ccc(Cl)cc7)CC(C)(C)CC6)CC5)cc4Oc4cnc5[nH]ccc5c4)cc([N+](=O)[O-])c3N2)CC1 [Example 2-194, (S)-2-((1H-pyrrolo[2,3-b]pyridin-5-yl)oxy)-N-((3-((1-acetylpiperidin-4-yl)methyl)-5-nitro-3,4-dihydro-2H-benzo[b][1,4]oxazin-7-yl)sulfonyl)-4-(4-((4′-chloro-5,5-dimethyl-3,4,5,6-tetrahydro-[1,1′-biphenyl]-2-yl)meth-yl)piperazin-1-yl)benzamide] | 74 nM | 5 nM |
